In US20230340498A1, “COMPOSITIONS AND METHODS FOR INDUCIBLE ALTERNATIVE SPLICING REGULATION OF GENE EXPRESSION” (The Children's Hospital of Philadelphia, priority 2020, published 2023):

How the values were obtained:
[1] = system: Ai14 reporter genomic locus; assay: In vivo AAV8.Xon.SaCas9 editing of Ai14 reporter locus in liver; details: Ai14 mice, PCR and tdTomato expression
Source text: To assess the applicability of Xon for liver targeted therapies, AAV8.Xon.Epo and AAV8.Xon.SaCas9 vectors were generated and delivered to C57Bl6 and Ai14 reporter mice, respectively (FIGS. 7A, 7C, 7F).

SF3B3-on switch = assay: Candidate minigene (SF3B3, BENC1, C12orf4, PDXDC2) switch-on luciferase assay in HEK293 cells; type: cell-based, Human
Procedure: (§1) Cell culture, transfection, and LMI070/RG7800 treatment. Human embryonic kidney (HEK293) cells (obtained from CHOP Research Vector Core stock) were maintained in DMEM media containing 10% Fetal Bovine Serum (FBS), 1% L-Glutamine and 1% penicillin/streptomycin at 37° C. with 5% CO2. Cells were cultured in 24 well plates and transfected at 80-90% confluence using Lipofectamine 2000 transfection reagent, according to the manufacturer’s protocol. For all experiments, 4 hours after plasmid transfection, cells were treated with LMI070 (MedChemExpress, HY-19620, suspended in DMSO) or RG7800 (MedChemExpress, HY-101792A, suspended in H2O) at the indicated concentrations. Cells were tested for mycoplasma by Research Vector Core. None of the cells used in the study were listed in ICLAC database of commonly misidentified cell lines.
In vitro luciferase assays. HEK293 cells were cultured in DMEM (10% FBS (v/v), 1% Pen/ Strep (v/v), and 1% L-glutamine (v/v) in a 24-well plate. At 70%-80% confluence, cells were co-transfected with the Xon.Firefly luciferase cassettes (0.3 µg/well) and a SV40p-Renilla luciferase cassette as transfection control (0.02 µg/well). Four hours after transfections cells were treated either with LMI070 or RG7800 at indicated concentrations. At 24 h after transfection, cells were rinsed with ice-cold PBS and Renilla and Firefly luciferase activities were assessed using the Dual-Luciferase Reporter Assay System (Promega) according to the manufacturer’s instructions. Luminescent readouts were obtained with a Monolight 3010 luminometer (Pharmigen). Relative light units (RLUs) were calculated as the quotient of […] RLUs and results expressed relative to mock treated control cells.
Next, a series of switch-on cassettes were developed from the top 4 LMI070-responsive exons found in the RNA-Seq dataset. […] HEK293 cells were transfected with the candidate cassettes, treated with LMI070, and luciferase activity or eGFP expression determined 24 h later. […]

SMN2 exon 7 = assay: SMN2-on cassette exon 7 splicing assay (RT-PCR) in transfected HEK293 cells; type: cell-based, Human; details: LMI070 compared with RG7800
Procedure: as §1, with “None of the cells used in the study were listed in ICLAC database of commonly misidentified cell lines.” left out
RNA extraction, RT-PCR, and Splicing assays. […] To determine HTT expression levels after transfection, RNA samples were quantified by spectrophotometry and subsequently cDNAs generated from […] of total RNA with random hexamers (TaqMan RT reagents, Applied Biosystems). […] Relative HTT gene expression was determined using the ddCt method. […] Splicing was determined by PCR using the Phusion High-Fidelity polymerase (Thermofisher) and PCR products separated on a 2.5% agarose gel pre-stained with EtBr and spliced-in and spliced-out band densitometry performed using with the ChemiDoc Imaging System (BioRad) and Image Lab analysis software. […]

CC1(C)CC(Oc2ccc(-c3ccc(-c4cn[nH]c4)cc3O)nn2)CC(C)(C)N1 [LMI070, 5-(1H-Pyrazol-4-yl)-2-(6-((2,2,6,6-tetramethylpiperidin-4-yl)oxy)pyridazin-3-yl)phenol]
editing of the Ai14 reporter genomic locus (liver) [1]: only observed on mice injected with AAV8.Xon.SaCas9 virus and treated with LMI070 | luciferase expression of each candidate cassette in response to LMI070 (SF3B3-on switch; SF3B3, BENC1, C12orf4, PDXDC2 cassettes, 24 h): Increased luciferase expression | luciferase induction of the SF3B3-on switch (SF3B3-on switch; in response to LMI070, relative to DMSO, 24 h): more than 100 fold | fold-change in luciferase activity in response to LMI070, original intron (SF3B3-on switch; original SF3B3-on construct compared with alternate intron cassettes): > 200 fold | relative activity in the setting of the SMN2-on cassette (SMN2 exon 7): more active than RG7800
